# Like-named read-outs stand apart in the source and are kept apart here.
# Experiments:
# Assay in all cases: Bystander BRET endosomal trafficking (β-arrestin 1-Nluc, FYVE-mVenus), HEK293 (SSTR2 mutants);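 further: Read-out is the BRET ratio between Nluc-fused β-arrestin 1 and the early endosome marker FYVE-mVenus, measured after ligand addition with coelenterazine h as substrate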;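 on Span: percent of maximal wild-type response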;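 on Top: percent of maximal wild-type response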
# SSTR2 mutants [1] = tested on: SSTR2 mutants
# Experimental: (§1) Wild-type or mutant SSTR2, β-arrestin 1-Nluc and FYVE-mVenus were co-transfected in HEK293 cells at a ratio of 1:0.5:4 on six-well plates. The next day, the transfected cells were plated on white 96-well and incubated overnight, and then cells were incubated with 90 µL HBSS containing 20 mM HEPES and coelenterazine h (5 µM) at room temperature for 40 min. After incubation, ligand was added and the signal was measured using the Synergy H1 microplate reader (BioTek) to determine a BRET ratio.
# SSTR2 mutants [2] = target: SSTR2 mutants (Homo sapiens, UniProt P30874, P220A)
# Experimental: as §1
# SSTR2 mutants [3] = target: SSTR2 mutants (Homo sapiens, UniProt P30874, F265A)
# Experimental: as §1
# SSTR2 mutants [4] = target: SSTR2 mutants (Homo sapiens, UniProt P30874, K291A); conditions: for Bottom: best-fit value
# Experimental: as §1
# SSTR2 mutants [5] = target: SSTR2 mutants (Homo sapiens, UniProt P30874, R140A)
# Experimental: as §1
# SSTR2 mutants [6] = target: SSTR2 mutants (Homo sapiens, UniProt P30874, I284A); conditions: for Bottom: best-fit value
# Experimental: as §1
# SSTR2 mutants [7] = target: SSTR2 mutants (Homo sapiens, UniProt P30874, Y312A)
# Experimental: as §1
# [8] = best-fit value, F294A-3 (run 3)
# [9] = best-fit value, I284A-1 (run 1)
# [10] = best-fit value, I284A-2 (run 2)
# [11] = best-fit value, I284A-3 (run 3)
# [12] = best-fit value, K291A-1 (run 1)
# [13] = best-fit value, K291A-2 (run 2)
# [14] = best-fit value, K291A-3 (run 3)
# [15] = best-fit value, N276A-1 (run 1)
# [16] = best-fit value, N276A-2 (run 2)
# [17] = best-fit value, N276A-3 (run 3)
# SSTR2 mutants (Homo sapiens, UniProt P30874, P220A), sequence (P30874 whole entry P220A): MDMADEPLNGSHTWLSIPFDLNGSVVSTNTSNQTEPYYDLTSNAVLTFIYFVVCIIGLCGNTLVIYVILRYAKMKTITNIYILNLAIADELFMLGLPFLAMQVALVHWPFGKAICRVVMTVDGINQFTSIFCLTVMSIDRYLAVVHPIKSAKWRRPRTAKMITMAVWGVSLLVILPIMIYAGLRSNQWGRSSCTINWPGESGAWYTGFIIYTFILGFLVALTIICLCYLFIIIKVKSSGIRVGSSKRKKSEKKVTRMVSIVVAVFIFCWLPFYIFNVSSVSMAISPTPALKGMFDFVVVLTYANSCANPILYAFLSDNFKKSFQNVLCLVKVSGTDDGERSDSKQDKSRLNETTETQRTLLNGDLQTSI
# SSTR2 mutants (Homo sapiens, UniProt P30874, K291A), sequence (P30874 whole entry K291A): as the sequence (P30874 whole entry P220A) above, with A220P, K291A counted along it
# SSTR2 mutants (Homo sapiens, UniProt P30874, F265A), sequence (P30874 whole entry F265A): as the sequence (P30874 whole entry P220A) above, with A220P, F265A counted along it
# SSTR2 mutants (Homo sapiens, UniProt P30874, I284A), sequence (P30874 whole entry I284A): as the sequence (P30874 whole entry P220A) above, with A220P, I284A counted along it
# SSTR2 mutants (Homo sapiens, UniProt P30874, Y312A), sequence (P30874 whole entry Y312A): as the sequence (P30874 whole entry P220A) above, with A220P, Y312A counted along it
# SSTR2 mutants (Homo sapiens, UniProt P30874, R140A), sequence (P30874 whole entry R140A): as the sequence (P30874 whole entry P220A) above, with R140A, A220P counted along it
smiles,measurement,setting,value
N#Cc1cccc(-c2ccc3ncc(-c4cc(F)cc(F)c4)c(N4CCC(N)CC4)c3c2)c1O [paltusotine],Top,"SSTR2 mutants [1]; best-fit value, F294A-2 (run 2)",81.83
same,EC50,SSTR2 mutants [1]; [8],1.57 µM
same,LogEC50,SSTR2 mutants [1]; [8],-5.803
same,Span,SSTR2 mutants [1]; [8],87.18
same,Top,SSTR2 mutants [1]; [8],86.4
same,EC50,SSTR2 mutants [1]; [9],0.0712 µM
same,LogEC50,SSTR2 mutants [1]; [9],-7.148
same,Span,SSTR2 mutants [1]; [9],95.18
same,Top,SSTR2 mutants [1]; [9],94.55
same,EC50,SSTR2 mutants [1]; [10],0.0841 µM
same,LogEC50,SSTR2 mutants [1]; [10],-7.075
same,Span,SSTR2 mutants [1]; [10],103.8
same,Top,SSTR2 mutants [1]; [10],105.1
same,EC50,SSTR2 mutants [1]; [11],0.0826 µM
same,LogEC50,SSTR2 mutants [1]; [11],-7.083
same,Span,SSTR2 mutants [1]; [11],102.7
same,Top,SSTR2 mutants [1]; [11],102.8
same,EC50,SSTR2 mutants [1]; [12],0.0357 µM
same,LogEC50,SSTR2 mutants [1]; [12],-7.448
same,Span,SSTR2 mutants [1]; [12],68.73
same,Top,SSTR2 mutants [1]; [12],69.72
same,EC50,SSTR2 mutants [1]; [13],0.0839 µM
same,LogEC50,SSTR2 mutants [1]; [13],-7.076
same,Span,SSTR2 mutants [1]; [13],87.08
same,Top,SSTR2 mutants [1]; [13],83.73
same,EC50,SSTR2 mutants [1]; [14],0.0302 µM
same,LogEC50,SSTR2 mutants [1]; [14],-7.52
same,Span,SSTR2 mutants [1]; [14],76.1
same,Top,SSTR2 mutants [1]; [14],71.42
same,EC50,SSTR2 mutants [1]; [15],0.14 µM
same,LogEC50,SSTR2 mutants [1]; [15],-6.855
same,Span,SSTR2 mutants [1]; [15],79.71
same,Top,SSTR2 mutants [1]; [15],79.77
same,EC50,SSTR2 mutants [1]; [16],0.11 µM
same,LogEC50,SSTR2 mutants [1]; [16],-6.96
same,Span,SSTR2 mutants [1]; [16],78.62
same,Top,SSTR2 mutants [1]; [16],78.47
same,EC50,SSTR2 mutants [1]; [17],0.1 µM
same,LogEC50,SSTR2 mutants [1]; [17],-7
same,Span,SSTR2 mutants [1]; [17],73.41
same,Top,SSTR2 mutants [1]; [17],70.97
same,EC50,"SSTR2 mutants [1]; read-out: EC50 (best-fit), I130A-1 (run 1)",~7970 µM
same,EC50,"SSTR2 mutants [1]; read-out: EC50 (best-fit), I130A-2 (run 2)",0.000139 µM
same,EC50,"SSTR2 mutants [1]; read-out: EC50 (best-fit), I130A-3 (run 3)",0.00034 µM
same,EC50,"SSTR2 mutants [1]; read-out: EC50 (best-fit), P220A-1 (run 1)",0.184 µM
same,EC50,"SSTR2 mutants [1]; read-out: EC50 (best-fit), P220A-2 (run 2)",~7280 µM
same,EC50,"SSTR2 mutants [1]; read-out: EC50 (best-fit), P220A-3 (run 3)",0.831 µM
same,EC50,"SSTR2 mutants [1]; read-out: EC50 (best-fit), R140A-1 (run 1)",0.00467 µM
same,EC50,"SSTR2 mutants [1]; read-out: EC50 (best-fit), R140A-2 (run 2)",0.00664 µM
same,EC50,"SSTR2 mutants [1]; read-out: EC50 (best-fit), R140A-3 (run 3)",0.00659 µM
same,EC50,"SSTR2 mutants [1]; read-out: EC50 (best-fit), W269A-1 (run 1)",0.13 µM
same,EC50,"SSTR2 mutants [1]; read-out: EC50 (best-fit), W269A-2 (run 2)",0.476 µM
same,EC50,"SSTR2 mutants [1]; read-out: EC50 (best-fit), W269A-3 (run 3)",0.155 µM
same,EC50,"SSTR2 mutants [1]; read-out: EC50 (best-fit), Y312A-1 (run 1)",0.00818 µM
same,EC50,"SSTR2 mutants [1]; read-out: EC50 (best-fit), Y312A-2 (run 2)",0.0115 µM
same,EC50,"SSTR2 mutants [1]; read-out: EC50 (best-fit), Y312A-3 (run 3)",0.00641 µM
same,Bottom (best-fit),SSTR2 mutants [2]; P220A-1 (run 1),0.5179
same,Bottom (best-fit),SSTR2 mutants [2]; P220A-2 (run 2),2.929
same,Bottom (best-fit),SSTR2 mutants [2]; P220A-3 (run 3),-2.504
same,Bottom (best-fit),SSTR2 mutants [3]; F265A-1 (run 1),-0.01693
same,Bottom (best-fit),SSTR2 mutants [3]; F265A-2 (run 2),-7.978
same,Bottom (best-fit),SSTR2 mutants [3]; F265A-3 (run 3),-0.1955
same,EC50,SSTR2 mutants [4],0.0894 ± 0.00133 µM
same,Emax,SSTR2 mutants [4]; HEK293,86.8 ± 5.01%
same,Bottom,SSTR2 mutants [4]; K291A-1 (run 1),0.9895
same,Bottom,SSTR2 mutants [4]; K291A-2 (run 2),-3.341
same,Bottom,SSTR2 mutants [4]; K291A-3 (run 3),-4.686
same,Bottom (best-fit),SSTR2 mutants [5]; R140A-1 (run 1),-0.6263
same,Bottom (best-fit),SSTR2 mutants [5]; R140A-2 (run 2),-11.29
same,Bottom (best-fit),SSTR2 mutants [5]; R140A-3 (run 3),0.1772
same,EC50,SSTR2 mutants [6],0.0898 ± 0.00128 µM
same,Emax,SSTR2 mutants [6]; HEK293,106 ± 6.25%
same,Bottom,SSTR2 mutants [6]; I284A-1 (run 1),-0.6254
same,Bottom,SSTR2 mutants [6]; I284A-2 (run 2),1.24
same,Bottom,SSTR2 mutants [6]; I284A-3 (run 3),0.1294
same,Bottom (best-fit),SSTR2 mutants [7]; Y312A-1 (run 1),-0.8168
same,Bottom (best-fit),SSTR2 mutants [7]; Y312A-2 (run 2),-2.056
same,Bottom (best-fit),SSTR2 mutants [7]; Y312A-3 (run 3),0.2687

# — paper PMC9944328 (Nature Communications, 2023)
